“Also recorded” adds a separate entry of the source.
How the values were obtained:
[1] = test system: MDA-MB-231; experiment: MTT cytotoxicity / anti-proliferation assay; assay type: cell-based; conditions: MDA-MB-231, MTT, 72 h; read-out: IC50, cancer cell viability
[2] = test system: p21; experiment: Immunohistochemical analysis of HGC-27 xenograft tumor; assay type: in vivo; conditions: vs blank group
Experimental: (§1) Then, immunohistochemical analysis was performed on the tumor of the HGC-27 xenograft tumor model. It is known that cyclin-dependent kinase 2 (CDK2) and CDK inhibitor p21 play pivotal parts in cell cycle regulation, while both downregulation of CDK2 or upregulation of p21 lead to cell cycle arrest ([[…] et al., 2019]; [Sturmlechner et al., 2021]). […] Ki-67 is an antigen associated with proliferating cells, which is usually positively correlated with tumor growth rate ([Menon et al., 2019]). […] Cleaved Caspase-3 is a pro-apoptotic protein, the higher the expression of this protein, the stronger […] ([Wei et al., 2020]). […] E-cadherin which is a type of cell surface transmembrane glycoprotein has an important influence on the cell-cell adhesion function. […] Representative tumor images of IHC analysis stained by CDK2, Cleaved Caspase-3, E-cadherin, KI-67 and p21. Magnification: × 400.

[3] = test system: Cleaved Caspase-3; experiment: as above; assay type: in vivo; conditions: vs blank group
Experimental: as §1

[4] = test system: Ki-67; experiment: as above; assay type: in vivo; conditions: vs blank group
Experimental: as §1

[5] = test system: E-cadherin; experiment: as above; assay type: in vivo; conditions: vs blank group
Experimental: as §1

[6] = test system: CDK2; experiment: as above; assay type: in vivo; conditions: vs blank group
Experimental: as §1

[7] = test system: SK-Hep-1; experiment: MTT cytotoxicity / anti-proliferation assay; assay type: cell-based; conditions: SK-Hep-1, MTT, 72 h; read-out: IC50, cancer cell viability
[8] = test system: HGC-27 cells; experiment: MTT cytotoxicity / anti-proliferation assay; assay type: cell-based, human; conditions: HGC-27, MTT, 72 h; read-out: IC50, cancer cell viability
Experimental: Undifferentiated human gastric cancer cell line (HGC-27) was purchased from the China Center for Type Collection (CCTCC, China) and used with 10% Foetal Bovine Serum (FBS, Gemini, Bio-Product, CA, United States), 1% penicillin streptomycin (PS) and 89% 1,640 medium ([…]) for culture. All cells were incubated at 37°C in a constant temperature incubator containing 95% air and 5% CO2.
To evaluate the cytotoxicity of F8 and related organic salts on HGC-27 cells, MTT analysis was performed. HGC-27 cells were digested with trypsin, then cells were spread into 96-well plates at a density of 3,000 cells/well and incubated for 12–16 h. After 12 h, the medium in 96-well plates was replaced with compounds containing 1, 0.5, 0.25, 0.125, 0.062, 0.0312 μM for another 72 h. Three days later, 20 μL MTT solution was added and incubated at 37°C for 4 h. Then 150 μL DMSO solution was added to each well after the fluid was removed, and the absorbance was detected by microplate reader. The compound dissolved in DMSO was added to the cell medium so that the final concentration of DMSO was less than 0.4%.
Infinite proliferation is one of the most prominent features of cancer cells, therefore, we evaluated the anti-proliferation activity of compounds F8 and related organic salts against human gastric carcinoma HGC-27 via MTT assay.

[9] = test system: HCC-1937; experiment: MTT cytotoxicity / anti-proliferation assay; assay type: cell-based; conditions: HCC-1937, MTT, 72 h; read-out: IC50, cancer cell viability
[10] = test system: MDA-MB-468; experiment: MTT cytotoxicity / anti-proliferation assay; assay type: cell-based; conditions: MDA-MB-468, MTT, 72 h; read-out: IC50, cancer cell viability

Compound: O=C(NCc1ccc(NC(=O)c2cc(F)ccc2N2CCCC2)cc1)OCc1cccnc1 [F8·2HCl]
- IC50 [1]: 47 ± 0.62 µM
- level of p21 protein (IHC) [2]: significantly upregulated
- expression of Cleaved Caspase-3 protein (IHC) [3]: significantly upregulated; also recorded: increased
- expression of Ki-67 protein (IHC) [4]: significantly decreased
- expression level of E-cadherin protein (IHC) [5]: increase the expression level; also recorded: increased
- expression of CDK2 (IHC) [6]: declined dose-dependently; also recorded: significantly decreased
- IC50 [7]: 9.37 ± 0.91 µM
- IC50 [8]: 0.25 ± 0.01 µM
- IC50 [9]: 48.81 ± 0.18 µM
- IC50 [10]: 1.42 ± 0.19 µM

From PMC10368370, “Development of o-aminobenzamide salt derivatives for improving water solubility and anti-undifferentiated gastric cancer” (Frontiers in Pharmacology, 2023)
